Structures are written as SMILES. In brackets after ≈: the same amount, converted by molar mass.

The target of series [1] is T1, proteasome subunit β5 (beta5) (Homo sapiens, UniProt P28074).
T1 construct: Lysate from the human acute lymphoblastic leukemia cell line, MOLT-4; endogenous in cells; host or cells: MOLT-4
The series can be described thus: Proteasome active-site ELISA (ProCISE), beta5, MOLT-4 lysate. To be noted: MOLT4 lysate, human, 1 h continuous treatment, 25° C. The series is classed as biochemical. In a few lines:
(§1)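 MOLT-4 cell lysate treated 1 h at 25 °C with compound; probe-bound subunits denatured, pulled down on streptavidin beads and detected with subunit-specific antibodies plus HRP chemiluminescence.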

Series [2] deals with T2, immunoproteasome subunit LMP7 (Homo sapiens, UniProt P28062).
T2 construct: Lysate from the human acute lymphoblastic leukemia cell line, MOLT-4; endogenous in cells; host or cells: MOLT-4
Briefly: Proteasome active-site ELISA (ProCISE), LMP7, MOLT-4 lysate. The series is classed as biochemical. To be noted: MOLT4 lysate, 1 h continuous treatment, 25° C. In a few lines:
as §1

Series [3] deals with human 20S immunoproteasome (i20S) (Homo sapiens, UniProt P28062). The series can be described thus: 20S proteasome assay, chymotrypsin-like activity (succinyl-Leu-Leu-Val-Tyr-AMC), i20S. The format is biochemical. To be noted: LLVY substrate, 1 h continuous. An excerpt: (§2) Assay buffer consisted of TE buffer [20 mmol/L Tris (pH 8.0), 0.5 mmol/L EDTA] with (20S) or without (cell lysate) 0.03% SDS. Reactions were initiated by enzyme or lysate addition and monitored for AMC product formation at 27jC with a plate-based spectofluorometer (Tecan).

For series [4], the target named is human constitutive 20S proteasome (c20S) (Homo sapiens, UniProt P28074). Briefly: 20S proteasome assay, chymotrypsin-like activity (succinyl-Leu-Leu-Val-Tyr-AMC), c20S. The series is classed as biochemical. To be noted: LLVY substrate, 1 h continuous.
Description: as §2

A further series in a line: Solubility pH 7. To be noted: pH 7, aqueous buffer.
The next series is described as follows: physchem. To be noted: pH 7, aqueous buffer.

Broadly, the IC50 is the point on the concentration scale where inhibition reaches its midpoint. Usually solubility stands for the concentration that dissolves in the medium under given conditions. High values mean a readily soluble substance, low ones a poorly soluble substance. Take `COc1ccc(C[C@H](NC(=O)[C@@H](C)NC(=O)[C@H]2CC[C@H](O)CC2)C(=O)N[C@@H](CC2=CCCC2)C(=O)[C@@]2(C)CO2)cc1` [Compound C-1057, (1r,4R)-N-((R)-1-(((S)-1-(((S)-3-(cyclopent-1-en-1-yl)-1-((R)-2-methyloxiran-2-yl)-1-oxopropan-2-yl)amino)-3-(4-methoxyphenyl)-1-oxopropan-2-yl)amino)-1-oxopropan-2-yl)-4-hydroxycyclohexanecarboxamide]: the IC50 in series [1] is 2550 nM; in series [2], 34 nM; in series [3], 5.3 nM; in series [4] it was 595 nM. Further, the concentration in solution in “Solubility pH 7” (solubility) was 491 µg/mL (≈ 862 µM).

Consider `COc1ccc(C[C@H](NC(=O)[C@@H](C)NC(=O)C2CCOCC2)C(=O)N[C@@H](CC2CCCC2)C(=O)[C@@]2(C)CO2)cc1O` [Compound C-1061, N-((R)-1-(((S)-1-(((S)-3-cyclopentyl-1-((R)-2-methyloxiran-2-yl)-1-oxopropan-2-yl)amino)-3-(3-hydroxy-4-methoxyphenyl)-1-oxopropan-2-yl)amino)-1-oxopropan-2-yl)tetrahydro-2H-pyran-4-carboxamide], for which the IC50 came out at 978 nM in series [1], 70.8 nM in series [2], 15.4 nM in series [3] and 756 nM in series [4]. Moreover, the solubility in “Solubility pH 7” came to 2050 µg/mL (≈ 3580 µM).

For the compound `COc1ccc(C[C@H](NC(=O)[C@@H](C)NC(=O)C2CCOCC2)C(=O)N[C@@H](CC2=CCCC2)C(=O)[C@@]2(C)CO2)cc1O` [Compound C-1062, N-((R)-1-(((S)-1-(((S)-3-(cyclopent-1-en-1-yl)-1-((R)-2-methyloxiran-2-yl)-1-oxopropan-2-yl)amino)-3-(3-hydroxy-4-methoxyphenyl)-1-oxopropan-2-yl)amino)-1-oxopropan-2-yl)tetrahydro-2H-pyran-4-carboxamide], the half-maximal inhibitory concentration (IC50) in series [1] worked out at 388 nM; in series [2], 38.4 nM; in series [3] it was 20.2 nM; in series [4] it was 232 nM. The same compound came in with a solubility in “Solubility pH 7” of 140 µg/mL (≈ 245 µM).

In the case of `COc1ccc(C[C@H](NC(=O)[C@@H](C)NC(=O)C2CC3(COC3)C2)C(=O)N[C@@H](CC2=CCCC2)C(=O)[C@@]2(C)CO2)cc1` [Compound C-1063, N-((R)-1-(((S)-1-(((S)-3-(cyclopent-1-en-1-yl)-1-((R)-2-methyloxiran-2-yl)-1-oxopropan-2-yl)amino)-3-(4-methoxyphenyl)-1-oxopropan-2-yl)amino)-1-oxopropan-2-yl)-2-oxaspiro[3.3]heptane-6-carboxamide], the IC50 in series [1] stood at 443 nM; in series [2], 90.7 nM; in series [3], 14.9 nM; in series [4] it was 169 nM. This compound had a solubility in the series “Solubility pH 7” of 1310 µg/mL (≈ 2310 µM).

Consider `COc1ccc(C[C@H](NC(=O)CNC(=O)CN2CCOCC2)C(=O)N[C@@H](Cc2ccccc2)C(=O)[C@@]2(C)CO2)cc1` [Compound C-1153, (S)-3-(4-methoxyphenyl)-N-((S)-1-((R)-2-methyloxiran-2-yl)-1-oxo-3-phenylpropan-2-yl)-2-(2-(2-morpholinoacetamido)acetamido)propanamide], for which the half-maximal inhibitory concentration (IC50) in series [1] was determined as 4170 nM; in series [2] it was 208 nM; in series [3] it was 278 nM; in series [4] it was 2430 nM. In the series “Solubility pH 7”, the solubility turned out to be 3270 µg/mL (≈ 5780 µM).

As to `COc1ccc(C[C@H](NC(=O)[C@H](CO)NC(=O)CN2CCOCC2)C(=O)N[C@@H](Cc2ccccc2)C(=O)[C@@]2(C)CO2)cc1` [Compound C-1159, (S)-3-hydroxy-N-((S)-3-(4-methoxyphenyl)-1-(((S)-1-((R)-2-methyloxiran-2-yl)-1-oxo-3-phenylpropan-2-yl)amino)-1-oxopropan-2-yl)-2-(2-morpholinoacetamido)propanamide], the 50% inhibitory concentration (IC50) is 454 nM in series [1], 43.1 nM in series [2], 43 nM in series [3] and 473 nM in series [4]. The solubility in “Solubility pH 7” is 1910 µg/mL (≈ 3210 µM).

In the case of `COc1ccc(C[C@H](NC(=O)[C@H](C)NC(=O)CN2CCOCC2)C(=O)N[C@@H](Cc2ccccc2)C(=O)[C@@]2(C)CO2)cc1OC` [Compound C-1160, (S)-3-(3,4-dimethoxyphenyl)-N-((S)-1-((R)-2-methyloxiran-2-yl)-1-oxo-3-phenylpropan-2-yl)-2-((S)-2-(2-morpholinoacetamido)propanamido)propanamide], the half-inhibitory concentration (IC50) was 660 nM in series [1], 157 nM in series [2], 246 nM in series [3] and 909 nM in series [4]. Moreover, the concentration in solution in “Solubility pH 7” (solubility) was 1530 µg/mL (≈ 2500 µM).

In the case of `C[C@H](NC(=O)CN1CCOCC1)C(=O)N[C@@H](Cc1ccc(N(C)C)cc1)C(=O)N[C@@H](Cc1ccccc1)C(=O)[C@@]1(C)CO1` [Compound C-1161, (S)-3-(4-(dimethylamino)phenyl)-N-((S)-1-((R)-2-methyloxiran-2-yl)-1-oxo-3-phenylpropan-2-yl)-2-((S)-2-(2-morpholinoacetamido)propanamido)propanamide], the IC50 in series [1] came to 409 nM; in series [2] it was 51.2 nM; in series [3], 146 nM; in series [4] it was 807 nM. For the same compound, in the series “Solubility pH 7”, the solubility came to 2110 µg/mL (≈ 3560 µM).

Turning to `COc1ccc(C[C@H](NC(=O)[C@H](C)NC(=O)CN2CCOCC2)C(=O)N[C@@H](Cc2ccc(O)cc2)C(=O)[C@@]2(C)CO2)cc1` [Compound C-1162, (S)-N-((S)-3-(4-hydroxyphenyl)-1-((R)-2-methyloxiran-2-yl)-1-oxopropan-2-yl)-3-(4-methoxyphenyl)-2-((S)-2-(2-morpholinoacetamido)propanamido)propanamide], the half-inhibitory concentration (IC50) in series [1] was 595 nM; in series [2] it was 43.4 nM; in series [3] it was 27.9 nM; in series [4], 1610 nM. This compound also came in with a solubility in “Solubility pH 7” of 1270 µg/mL (≈ 2130 µM).

Turning to `COc1ccc(C[C@H](NC(=O)[C@@H](NC(=O)CN2CCOCC2)[C@H](C)O)C(=O)N[C@@H](Cc2ccccc2)C(=O)[C@@]2(C)CO2)cc1` [Compound C-1174], the 50% inhibitory concentration (IC50) stood at 150 nM in series [1], 22.9 nM in series [2], 23 nM in series [3] and 161 nM in series [4]. This compound also displayed a solubility in the series “Solubility pH 7” of 1780 µg/mL (≈ 2920 µM).

The compound `COc1ccc(C[C@H](NC(=O)[C@H](C)NC(=O)CN2CC3CC(C2)O3)C(=O)N[C@@H](CC2CCCC2)C(=O)[C@@]2(C)CO2)cc1` [Compound C-1229, (2S)-2-((2S)-2-(2-(6-oxa-3-azabicyclo[3.1.1]heptan-3-yl)acetamido)propanamido)-N-((S)-3-cyclopentyl-1-((R)-2-methyloxiran-2-yl)-1-oxopropan-2-yl)-3-(4-methoxyphenyl)propanamide] had a solubility in “physchem” of 3620 µg/mL (≈ 6200 µM).

Values taken from patent USRE47302E1 (ONYX THERAPEUTICS INC., priority 2013, dated 2019).
